Results taken from paper PMC5218480 (PLoS ONE, 2017).

System: MV-4-11 cells
Experiment: Gene expression microarray analysis (Affymetrix PrimeView) and GSEA
Format: cell-based, human
Parameters: RFU PODN (11730768_x_at) / Fold change /veh PODN (11730768_x_at) / RFU LINC00158 (11744669_a_at) / Fold change /veh LINC00158 (11744669_a_at) / RFU DUSP10 (11751237_a_at) / Fold change /veh DUSP10 (11751237_a_at) / RFU ID3 (11757404_x_at) / Fold change /veh ID3 (11757404_x_at) / RFU PLEKHG5 (11737974_s_at) / Fold change /veh PLEKHG5 (11737974_s_at) / RFU LRRC4B (11730491_at) / Fold change /veh LRRC4B (11730491_at) / RFU GIMAP4 (11747438_a_at) / Fold change /veh GIMAP4 (11747438_a_at) / RFU KRT8 (11758183_x_at) / Fold change /veh KRT8 (11758183_x_at) / RFU CNN1 (11734310_a_at) / Fold change /veh CNN1 (11734310_a_at) / RFU VPS37D (11726825_at) / Fold change /veh VPS37D (11726825_at) / RFU C10orf10 (11716522_x_at) / Fold change /veh C10orf10 (11716522_x_at) / RFU KIR2DL2 /// KIR2DL4 /// KIR2DL5A /// KIR2DL5B /// KIR2DS1 /// KIR2DS2 /// KIR2DS3 /// KIR2DS4 /// KIR3DL3 /// KIR3DL3 /// KIR3DS1 (11738374_at) / Fold change /veh KIR2DL2 /// KIR2DL4 /// KIR2DL5A /// KIR2DL5B /// KIR2DS1 /// KIR2DS2 /// KIR2DS3 /// KIR2DS4 /// KIR3DL3 /// KIR3DL3 /// KIR3DS1 (11738374_at) / RFU C1QL1 (11718748_at) / Fold change /veh C1QL1 (11718748_at) / RFU TMPRSS4 (11747572_a_at) / Fold change /veh TMPRSS4 (11747572_a_at) / RFU HAMP (11756126_x_at) / Fold change /veh HAMP (11756126_x_at) / RFU RNFT2 (11725882_a_at) / Fold change /veh RNFT2 (11725882_a_at) / RFU NR4A2 (11747474_a_at) / Fold change /veh NR4A2 (11747474_a_at) / RFU ABCC12 (11746883_a_at) / Fold change /veh ABCC12 (11746883_a_at) / RFU TMEM136 (11760407_x_at) / Fold change /veh TMEM136 (11760407_x_at) / RFU CLDN22 /// WWC2 (11732394_at) / Fold change /veh CLDN22 /// WWC2 (11732394_at) / RFU HLA-DPB1 (11760878_x_at) / Fold change /veh HLA-DPB1 (11760878_x_at) / RFU SPINT1 (11716480_a_at) / Fold change /veh SPINT1 (11716480_a_at) / RFU GAP43 (11754022_s_at) / Fold change /veh GAP43 (11754022_s_at) / RFU A4GNT (11735810_at) / Fold change /veh A4GNT (11735810_at) / RFU PRB3 (11715151_x_at) / Fold change /veh PRB3 (11715151_x_at) / RFU TUBB4B (11761932_at) / Fold change /veh TUBB4B (11761932_at) / RFU CAPN14 (11732068_a_at) / Fold change /veh CAPN14 (11732068_a_at) / RFU TMCC2 (11721928_a_at) / Fold change /veh TMCC2 (11721928_a_at) / RFU IRGQ (11745062_a_at) / Fold change /veh IRGQ (11745062_a_at) / RFU FAM174B (11720279_a_at) / Fold change /veh FAM174B (11720279_a_at) / RFU TMPRSS4 (11748680_a_at) / Fold change /veh TMPRSS4 (11748680_a_at) / RFU FAM212B (11763350_a_at) / Fold change /veh FAM212B (11763350_a_at) / RFU PLEKHG5 (11743358_a_at) / Fold change /veh PLEKHG5 (11743358_a_at) / RFU ZSCAN30 (11745921_a_at) / Fold change /veh ZSCAN30 (11745921_a_at) / RFU CMKLR1 (11741424_a_at) / Fold change /veh CMKLR1 (11741424_a_at) / RFU LOC101060620 /// MAPK8IP1 (11723275_at) / Fold change /veh LOC101060620 /// MAPK8IP1 (11723275_at) / RFU SPTSSB (11747773_x_at) / Fold change /veh SPTSSB (11747773_x_at) / RFU PRSS12 (11739890_at) / Fold change /veh PRSS12 (11739890_at) / RFU BIN1 (11741810_x_at) / Fold change /veh BIN1 (11741810_x_at) / RFU WNT11 (11732464_a_at) / Fold change /veh WNT11 (11732464_a_at) / RFU C10orf10 (11716521_a_at) / Fold change /veh C10orf10 (11716521_a_at) / RFU C5orf56 (11738089_at) / Fold change /veh C5orf56 (11738089_at) / RFU CYB561 (11721691_x_at) / Fold change /veh CYB561 (11721691_x_at) / RFU ANKRD19P (11752326_a_at) / Fold change /veh ANKRD19P (11752326_a_at) / RFU OR2T12 /// OR2T33 /// OR2T8 (11738714_s_at) / Fold change /veh OR2T12 /// OR2T33 /// OR2T8 (11738714_s_at) / RFU VCAN (11748164_a_at) / Fold change /veh VCAN (11748164_a_at) / RFU JSRP1 (11732532_at) / Fold change /veh JSRP1 (11732532_at) / RFU KRTAP10-11 (11738290_x_at) / Fold change /veh KRTAP10-11 (11738290_x_at) / RFU MYO3A (11730013_a_at) / Fold change /veh MYO3A (11730013_a_at) / RFU EBF3 (11725865_a_at) / Fold change /veh EBF3 (11725865_a_at) / RFU CAMK2N1 (11719241_x_at) / Fold change /veh CAMK2N1 (11719241_x_at) / RFU C5orf56 (11738088_a_at) / Fold change /veh C5orf56 (11738088_a_at) / RFU OLFML3 (11715873_a_at) / Fold change /veh OLFML3 (11715873_a_at) / RFU LOC100653217 /// NTM (11731650_a_at) / Fold change /veh LOC100653217 /// NTM (11731650_a_at) / RFU MAPK11 (11762145_a_at) / Fold change /veh MAPK11 (11762145_a_at) / RFU FIZ1 (11724087_x_at) / Fold change /veh FIZ1 (11724087_x_at) / RFU OASL (11726364_x_at) / Fold change /veh OASL (11726364_x_at) / RFU SOX15 (11748057_x_at) / Fold change /veh SOX15 (11748057_x_at) / RFU CD79A (11719716_a_at) / Fold change /veh CD79A (11719716_a_at) / RFU HIST1H1D (11736915_at) / Fold change /veh HIST1H1D (11736915_at) / RFU CASKIN2 (11723855_a_at) / Fold change /veh CASKIN2 (11723855_a_at) / RFU LOC730098 (11760151_x_at) / Fold change /veh LOC730098 (11760151_x_at) / RFU OR4N2 (11742367_at) / Fold change /veh OR4N2 (11742367_at) / RFU PRRT2 (11749266_a_at) / Fold change /veh PRRT2 (11749266_a_at) / RFU SNX32 (11753110_a_at) / Fold change /veh SNX32 (11753110_a_at) / RFU CDHR5 (11726645_a_at) / Fold change /veh CDHR5 (11726645_a_at) / RFU RCAN1 (11760418_a_at) / Fold change /veh RCAN1 (11760418_a_at) / RFU FAM167A (11723789_a_at) / Fold change /veh FAM167A (11723789_a_at) / RFU FAM26E (11764081_at) / Fold change /veh FAM26E (11764081_at) / RFU ISYNA1 (11749810_s_at) / Fold change /veh ISYNA1 (11749810_s_at) / RFU ACY1 (11761880_at) / Fold change /veh ACY1 (11761880_at) / RFU 11764098_at / Fold change /veh 11764098_at / RFU SAMD14 (11745864_x_at) / Fold change /veh SAMD14 (11745864_x_at) / RFU NPB (11741838_a_at) / Fold change /veh NPB (11741838_a_at) / RFU TMPRSS6 (11731388_a_at) / Fold change /veh TMPRSS6 (11731388_a_at) / RFU KRTAP10-2 (11738614_at) / Fold change /veh KRTAP10-2 (11738614_at) / RFU ARHGAP8 /// PRR5-ARHGAP8 (11727945_x_at) / Fold change /veh ARHGAP8 /// PRR5-ARHGAP8 (11727945_x_at) / RFU KRTAP5-7 /// NADSYN1 (11734609_at) / Fold change /veh KRTAP5-7 /// NADSYN1 (11734609_at) / RFU RASL12 (11751679_a_at) / Fold change /veh RASL12 (11751679_a_at) / RFU CDKN2B (11736163_a_at) / Fold change /veh CDKN2B (11736163_a_at) / RFU PRF1 (11729649_at) / Fold change /veh PRF1 (11729649_at) / RFU, ZNF638 /// ZNF638-IT1 / Fold change vs veh, ZNF638 /// ZNF638-IT1 / RFU, PANK3 / Fold change vs veh, PANK3 / RFU, SH3YL1 / Fold change vs veh, SH3YL1 / RFU, ZEB2 / Fold change vs veh, ZEB2 / RFU, NRIP1 / Fold change vs veh, NRIP1 / RFU, PTTG1IP / Fold change vs veh, PTTG1IP / RFU, CAPN2 / Fold change vs veh, CAPN2 / RFU, MED14 / Fold change vs veh, MED14 / RFU, SNORA58 / Fold change vs veh, SNORA58 / RFU, C1orf63 / Fold change vs veh, C1orf63 / RFU, LRRFIP1 / Fold change vs veh, LRRFIP1 / RFU, NDUFAF7 / Fold change vs veh, NDUFAF7 / RFU, SLC12A2 / Fold change vs veh, SLC12A2 / RFU, IBTK / Fold change vs veh, IBTK / RFU, ESF1 / Fold change vs veh, ESF1 / Fold change vs veh, TMEM50B / RFU, TAOK1 / Fold change vs veh, TAOK1 / RFU, ACBD3 / Fold change vs veh, ACBD3 / RFU, TMA16 / Fold change vs veh, TMA16 / RFU, RWDD3 / Fold change vs veh, RWDD3 / RFU, BCAT1 / Fold change vs veh, BCAT1 / RFU, EDEM3 / Fold change vs veh, EDEM3 / RFU, TMEM33 / Fold change vs veh, TMEM33 / RFU, WDR75 / Fold change vs veh, WDR75 / RFU, AHCTF1 / Fold change vs veh, AHCTF1 / RFU, TFRC / Fold change vs veh, TFRC / RFU, ZDHHC17 / Fold change vs veh, ZDHHC17 / RFU, NOM1 / Fold change vs veh, NOM1 / RFU, ARL8B / Fold change vs veh, ARL8B / RFU, ZBTB11 / Fold change vs veh, ZBTB11 / RFU, TAMM41 / Fold change vs veh, TAMM41 / RFU, KIAA1704 /// LOC100996395 / Fold change vs veh, KIAA1704 /// LOC100996395 / RFU, ING1 / Fold change vs veh, ING1 / RFU, TRMT61B / Fold change vs veh, TRMT61B / RFU, FUBP3 / Fold change vs veh, FUBP3 / RFU, TP53 / Fold change vs veh, TP53 / RFU, TNKS2 / Fold change vs veh, TNKS2 / RFU, ZFP14 / Fold change vs veh, ZFP14 / RFU, ACTR2 / Fold change vs veh, ACTR2 / RFU, PPP3R1 / Fold change vs veh, PPP3R1 / RFU, PIK3R1 / Fold change vs veh, PIK3R1 / RFU, HNRNPA1 / Fold change vs veh, HNRNPA1 / RFU, RNF170 / Fold change vs veh, RNF170 / RFU, ZNF28 / Fold change vs veh, ZNF28 / RFU, RNGTT / Fold change vs veh, RNGTT / RFU, OGT / Fold change vs veh, OGT / RFU, BRD1 / Fold change vs veh, BRD1 / RFU, MARS / Fold change vs veh, MARS / RFU, ZNF655 / Fold change vs veh, ZNF655 / RFU, FAHD1 / Fold change vs veh, FAHD1 / RFU, BDP1 / Fold change vs veh, BDP1 / RFU, LRRCC1 / Fold change vs veh, LRRCC1 / RFU, ARID1A / Fold change vs veh, ARID1A / RFU, ZNF146 / Fold change vs veh, ZNF146 / RFU, ZNF330 / Fold change vs veh, ZNF330 / RFU, GPN3 / Fold change vs veh, GPN3 / RFU, C9orf123 / Fold change vs veh, C9orf123 / RFU, N4BP2L2 / Fold change vs veh, N4BP2L2 / RFU, ARFIP1 / Fold change vs veh, ARFIP1 / RFU, FAM179B / Fold change vs veh, FAM179B / RFU, BCL10 / Fold change vs veh, BCL10 / RFU, UHRF1BP1L / Fold change vs veh, UHRF1BP1L / RFU, BET1 / Fold change vs veh, BET1 / RFU, CNOT2 / Fold change vs veh, CNOT2 / RFU, ZNF268 / Fold change vs veh, ZNF268 / Fold change vs veh, ZNF507 / RFU, DGCR2 / Fold change vs veh, DGCR2 / RFU, WDSUB1 / Fold change vs veh, WDSUB1 / Fold change vs veh, HSP90B1 /// MIR3652 / RFU, ADSS / Fold change vs veh, ADSS / RFU, GK / Fold change vs veh, GK / RFU, ZNF148 / Fold change vs veh, ZNF148 / RFU, TAF9 / Fold change vs veh, TAF9 / RFU, SLC1A5 / Fold change vs veh, SLC1A5 / RFU, SLMO2 / Fold change vs veh, SLMO2 / RFU, ABCC4 / Fold change vs veh, ABCC4 / RFU, LOC101060439 /// RAP1B / Fold change vs veh, LOC101060439 /// RAP1B / RFU, RFX7 / Fold change vs veh, RFX7 / RFU, GTPBP10 / Fold change vs veh, GTPBP10 / RFU, CNEP1R1 / Fold change vs veh, CNEP1R1 / RFU, BIVM-ERCC5 /// ERCC5 / Fold change vs veh, BIVM-ERCC5 /// ERCC5 / RFU, ILF3 / Fold change vs veh, ILF3 / RFU 11762660_at / Fold change /veh 11762660_at / RFU VCAN (11757783_s_at) / Fold change /veh VCAN (11757783_s_at) / RFU DDX43 (11728927_at) / Fold change /veh DDX43 (11728927_at) / RFU KRT8 (11758188_x_at) / Fold change /veh KRT8 (11758188_x_at) / RFU NKD1 (11759106_at) / Fold change /veh NKD1 (11759106_at) / RFU SRD5A1 (11742802_a_at) / Fold change /veh SRD5A1 (11742802_a_at) / RFU TPSAB1 /// TPSB2 (11721975_s_at) / Fold change /veh TPSAB1 /// TPSB2 (11721975_s_at) / RFU GSTM3 (11746129_a_at) / Fold change /veh GSTM3 (11746129_a_at) / RFU IL23R (11737362_x_at) / Fold change /veh IL23R (11737362_x_at) / RFU TMEM51 (11727254_a_at) / Fold change /veh TMEM51 (11727254_a_at) / RFU PIWIL2 (11732686_x_at) / Fold change /veh PIWIL2 (11732686_x_at) / RFU ORM1 (11744905_x_at) / Fold change /veh ORM1 (11744905_x_at) / RFU CCDC152 (11743942_at) / Fold change /veh CCDC152 (11743942_at) / RFU ECM1 (11717891_a_at) / Fold change /veh ECM1 (11717891_a_at) / RFU IL23R (11748794_a_at) / Fold change /veh IL23R (11748794_a_at) / RFU TNFAIP8L3 (11732012_x_at) / Fold change /veh TNFAIP8L3 (11732012_x_at) / RFU MBOAT4 (11741988_at) / Fold change /veh MBOAT4 (11741988_at) / RFU 11764193_at / Fold change /veh 11764193_at / RFU TMEM53 (11763286_at) / Fold change /veh TMEM53 (11763286_at) / RFU MAGEB2 (11727129_at) / Fold change /veh MAGEB2 (11727129_at) / RFU TMEM200A (11744735_a_at) / Fold change /veh TMEM200A (11744735_a_at) / RFU CCDC152 (11751479_a_at) / Fold change /veh CCDC152 (11751479_a_at) / RFU FAM211A (11726209_a_at) / Fold change /veh FAM211A (11726209_a_at) / RFU RGS16 (11746705_a_at) / Fold change /veh RGS16 (11746705_a_at) / RFU VCAN (11755009_s_at) / Fold change /veh VCAN (11755009_s_at) / RFU RHOB (11743442_s_at) / Fold change /veh RHOB (11743442_s_at) / RFU RGS16 (11720943_a_at) / Fold change /veh RGS16 (11720943_a_at) / RFU RGS16 (11720944_at) / Fold change /veh RGS16 (11720944_at) / RFU, VPS4B / Fold change vs veh, VPS4B / RFU, CREB1 / Fold change vs veh, CREB1 / RFU, DNAJC13 / Fold change vs veh, DNAJC13 / RFU, GNAQ / Fold change vs veh, GNAQ / RFU, CDK5R1 / Fold change vs veh, CDK5R1 / RFU, ZRANB3 / Fold change vs veh, ZRANB3 / RFU, CUL4A / Fold change vs veh, CUL4A / RFU, CCNY / Fold change vs veh, CCNY / RFU, UFL1 / Fold change vs veh, UFL1 / RFU, COG3 / Fold change vs veh, COG3 / RFU, DIAPH2 / Fold change vs veh, DIAPH2 / RFU, SKA2 / Fold change vs veh, SKA2 / RFU, AFF3 / Fold change vs veh, AFF3 / RFU, LMF1 / Fold change vs veh, LMF1 / RFU, IPO11 / Fold change vs veh, IPO11 / RFU, DFFB / Fold change vs veh, DFFB / RFU, FOXP1 / Fold change vs veh, FOXP1 / RFU, CARD8 / Fold change vs veh, CARD8 / RFU, STRN3 / Fold change vs veh, STRN3 / RFU, ADK / Fold change vs veh, ADK / RFU, RASSF2 / Fold change vs veh, RASSF2 / RFU, WIPF1 / Fold change vs veh, WIPF1 / RFU, LARP1B / Fold change vs veh, LARP1B / RFU, RASA1 / Fold change vs veh, RASA1 / RFU, RB1 / Fold change vs veh, RB1 / RFU, PPFIA1 / Fold change vs veh, PPFIA1 / RFU, MAT2A / Fold change vs veh, MAT2A / RFU, CCT5 / Fold change vs veh, CCT5 / RFU, WDR92 / Fold change vs veh, WDR92 / RFU, CUX1 / Fold change vs veh, CUX1 / RFU, TTC7A / Fold change vs veh, TTC7A / RFU, TMEM135 / Fold change vs veh, TMEM135 / RFU, DEPTOR / Fold change vs veh, DEPTOR / RFU, CPM / Fold change vs veh, CPM / RFU, DNAJB6 / Fold change vs veh, DNAJB6 / RFU, CACNA2D3 / Fold change vs veh, CACNA2D3 / RFU, DTX4 / Fold change vs veh, DTX4 / RFU, TFCP2 / Fold change vs veh, TFCP2 / RFU, GMCL1 /// GMCL1P1 / Fold change vs veh, GMCL1 /// GMCL1P1 / RFU, AEBP2 / Fold change vs veh, AEBP2 / RFU, SNHG1 /// SNORD22 /// SNORD25 /// SNORD26 /// SNORD27 /// SNORD28 /// SNORD29 /// SNORD31 / Fold change vs veh, SNHG1 /// SNORD22 /// SNORD25 /// SNORD26 /// SNORD27 /// SNORD28 /// SNORD29 /// SNORD31 / Fold change (Aza/veh), C12orf56 (ProbeSet 11735607_a_at) / Fold change (ACY-1035/veh), C12orf56 (ProbeSet 11735607_a_at) / Fold change (Aza/veh), FGFR1OP (ProbeSet 11751329_s_at) / Fold change (ACY-1035/veh), FGFR1OP (ProbeSet 11751329_s_at) / Fold change (Aza/veh), VPS36 (ProbeSet 11739960_a_at) / Fold change (ACY-1035/veh), VPS36 (ProbeSet 11739960_a_at) / RFU SYPL1 (11715823_x_at) / Fold change /veh SYPL1 (11715823_x_at) / RFU IGFBP7 (11715501_s_at) / Fold change /veh IGFBP7 (11715501_s_at) / RFU REEP3 (11722064_at) / Fold change /veh REEP3 (11722064_at) / RFU IGLL1 (11728026_x_at) / Fold change /veh IGLL1 (11728026_x_at): dose or concentration left out as unconfirmed
Details: ProbeSet 11727641_at; LIST B

Nc1ccc(-c2cccs2)cc1NC(=O)c1ccc2c(c1)cc(C1CC1)n2CCN1CCOCC1 [ACY-1035]
Fold change vs veh, NOM1: 0.95
